# Laboratory results published in US20260061080A1, “FLUORESCENT COMPOUND BASED ON NEW INDOCYANINE GREEN IR820, AND PREPARATION AND USE THEREOF” (Shanghai Fluoresoma Medical Technology Co., Ltd., priority 2023, published 2026).
# Columns and labels:
# [1] = system: breast cancer cells (MCF-7), cervical cancer cells (Hela), normal cells (CHO); conditions: 10 μL of 1 mM DMSO mother solution of probe in 2 mL culture dish; CHO vs MCF-7 and Hela; FIG. 4
# Method: An instrument model used for cell imaging is a Leica TCS SP5 II confocal laser scanning microscope using a HC×PLAPO 63×oil objective (NA: 1.40).
# The experiment was carried out in three groups, with one group using normal cells (CHO), one group using breast cancer cells (MCF-7), and one group using cervical cancer cells (Hela). Before an imaging test, a cultured cell culture solution was first sucked away, and the cells were washed once with a PBS buffer solution, and then washed once with DMEM or 1640. 10 μL of a formulated DMSO mother solution with a probe concentration of 1 mM was measured and added into a 2 mL culture dish containing a fresh DMEM or 1640 culture medium. After culture was completed, the excessive culture solution was first removed, the cells were washed with a PBS buffer solution (pH 7.4) to remove an excessive probe, and then the imaging test was carried out on the cells separately using a confocal fluorescence microscope.
# [2] = system: tumor sites of tumor-bearing mice; experiment: Fluorescence imaging of IR820-cRGD in living tumor-bearing mice; type: in vivo; conditions: tail vein injection, solution in pure water at 10 μM (or equal equivalent probe concentration), observed 2 hours later; FIG. 5
# Method: Three tumor-bearing mice were administered with an IR820-cRGD solution in pure water at a concentration of 10 μM, a […] solution in pure water at an equal equivalent probe concentration, and an IR820 solution in pure water at an equal equivalent probe concentration through tail vein injection, respectively. 2 hours later, tumor sites of the mice were observed using an in vivo imaging instrument for small animals to obtain imaging situations.
Compound,fluorescence signal in cells (selectivity for tumor cells) [1],fluorescence signal at the tumor site [2]
CC1(C)C(/C=C/C2=C(Oc3ccc(CCC(=O)NCCCC[C@@H]4NC(=O)[C@@H](Cc5ccccc5)NC(=O)[C@H](CC(=O)O)NC(=O)CNC(=O)[C@H](CCCNC(=N)N)NC4=O)cc3)C(=C/C=C3/N(CCCCS(=O)(=O)O)c4ccc5ccccc5c4C3(C)C)/CCC2)=[N+](CCCCS(=O)(=O)O)c2ccc3ccccc3c21 [IR820-cRGD],greater selective fluorescence signals for the tumor cells,highly bright fluorescence signal
CC1(C)C(/C=C/C2=C(Cl)C(=C/C=C3/N(CCCCS(=O)(=O)[O-])c4ccc5ccccc5c4C3(C)C)/CCC2)=[N+](CCCCS(=O)(=O)O)c2ccc3ccccc3c21 [IR820],,weak fluorescence signal
